Reference: US5830910A (priority 1995, dated 1998)
Entries after “also recorded” stand apart in the source; their conditions may differ.

System: actin stress fibers in astrocytes
Test: phalloidin staining of actin stress fibers, astrocytes
Format: cell-based, rat
Conditions: 10-1000 nM (FIG. 4A: 100 nM), 3 h
Protocol: Hippocampal cells were exposed to cytochalasin D and then fixed for 30 min in 4% paraformaldehyde/phosphate-buffered saline. Cell membranes were permeabilized by incubating for 5 min in a solution of 0.2% Triton X-100 in phosphate-buffered saline. Cells were then incubated for 30 min in PBS containing 0.005 U/ml fluorescein-phalloidin (Molecular Probes). Cells were rinsed in water and mounted in Vectashield antifade solution (Vector Laboratories) . Fluorescence images were acquired using a Sarastro 2000 confocal laser scanning microscope with a 60x oil-immersion objective. All images were acquired using identical settings for excitation intensity and detector gain.
FIG. 4. (A) Micrographs are confocal laser scanning microscope images of cultured hippocampal cells stained with fluorescein-labeled phalloidin. Cells were exposed for 3 h to either vehicle (control; left) or 100 nM cytochalasin D (right) prior to staining with phalloidin. The top micrographs show several neurons (arrowheads point to neuronal cell bodies); note reduction in phalloidin fluorescence in cytochalasin-treatedneurons.

C=C1[C@@H](C)[C@H]2[C@H](Cc3ccccc3)NC(=O)[C@]23[C@H](OC(C)=O)/C=C/[C@@](C)(O)C(=O)[C@@H](C)C/C=C/[C@H]3[C@@H]1O [Cytochalasin D, cytochalasin D] was tested, and the “actin stress fibers in astrocytes” value was “loss of actin stress fibers in astrocytes; also recorded: loss of stress fibers and cell rounding”.
